Test results reported in patent US12698258B2, “Cystine cationic lipids” (Translate Bio, Inc., priority 2019, dated 2026).

Tested on: hEPO protein expression
Experiment: In vivo expression of hEPO after IM injection of lipid nanoparticle formulations with hEPO mRNA
Set-up: species or system BALB/c mice
Conditions: lipid nanoparticles comprising the compound and hEPO mRNA; single intramuscular injection, 0.1 ug; hEPO in sera by ELISA; 24 hours after administration
Procedure: In embodiments, cationic lipids described herein can be used in the preparation of lipid nanoparticles according to methods known in the art. For example, suitable methods include methods described in international Publication No. WO 2018/089801, which is hereby incorporated by reference in its entirety.
Lipid nanoparticle formulations comprising human erythropoietin (hEPO) mRNA, Cationic Lipid, DMG-PEG2000, Cholesterol and DOPE were administered intramuscularly to study mRNA delivery and resultant hEPO expression. Male BALB/c mice at 6-8 weeks old are given a single injection of the LNP formulations into the gastrocnemius muscle at a dosage level of 0.1 ug. Blood samples were collected at 6 and 24 hours post-dose. hEPO protein expression levels were measured in the sera samples by ELISA and presented in FIG. 1.

## CCCCCCCC(C)COC(=O)CCN(CCC(=O)OCCCCCCCC(C)C)[C@@H](CSSC[C@@H](C(=O)OC(C)CN(CCCN(C)C)CCCN(C)C)N(CCC(=O)OCCCCCCCC(C)C)CCC(=O)OCC(C)CCCCCCC)C(=O)OC(C)CN(CCCN(C)C)CCCN(C)C (some centres unmarked) [Compound 3]
  in vivo protein production resulting from the delivery of mRNA (FIG. 1): high levels of in vivo protein production

## CCCCCCCC(C)COC(=O)CCN(CCC(=O)OCCCCCCCC(C)C)[C@@H](CSSC[C@@H](C(=O)OCCOCCOCCOC)N(CCC(=O)OCCCCCCCC(C)C)CCC(=O)OCC(C)CCCCCCC)C(=O)OCCOCCOCCOC (some centres unmarked) [Compound 4]
  in vivo protein production resulting from the delivery of mRNA (FIG. 1): high levels of in vivo protein production
